What was measured:
α4β1 = molecular target: T1, α4β1 (Homo sapiens, UniProt P05556+P13612); experiment: Ramos Cell Adhesion Assay (α4β1 Mediated Adhesion/VCAM-1); format: cell-based; conditions: Ramos cell adhesion to hVCAM-1; read-out: α4β1 IC50
T1 construct: Ramos Cell Adhesion Assay (α4β1 Mediated Adhesion/VCAM-1); endogenous in cells; host or cells: Ramos cells
Description: Ramos Cell Adhesion Assay (α4β1 Mediated Adhesion/VCAM-1)
Immulon 96 well plates (Dynex) were coated with 100 μL recombinant hVCAM-1 at 4.0 μg/mL in 0.05 M NaCO3 buffer pH 9.0 overnight at 4° C. (R&D Systems). Plates were washed 2 times in PBS with 1% BSA and blocked for 1 h @ room temperature in this buffer. PBS was removed and compounds to be tested (50 μL) were added at 2× concentration. Ramos cells, (50 μL at 2×10^6/mL) labeled with 5 μM Calcein AM (Molecular Probes) for 1 h at 37° C., were added to each well and allowed to adhere for 1 h at room temperature. Plates were washed 4× in PBS+1% BSA and cells were lysed for 15 minutes in 100 μL of 1 M Tris pH 8.0 with 1% SDS.

human α4β7 integrin = molecular target: T2, human α4β7 integrin (Homo sapiens, UniProt P13612+P26010); experiment: α4β7-K562 Cell Adhesion Assay (α4β7 Mediated Adhesion/MAdCAM-1); format: cell-based; conditions: α4β7-K562 cell adhesion to hMAdCAM-1; read-out: α4β7 IC50
T2 construct: expressed in transfected cells; host or cells: K562 cells, stably transfected
T2 sequence (P13612 34-1032): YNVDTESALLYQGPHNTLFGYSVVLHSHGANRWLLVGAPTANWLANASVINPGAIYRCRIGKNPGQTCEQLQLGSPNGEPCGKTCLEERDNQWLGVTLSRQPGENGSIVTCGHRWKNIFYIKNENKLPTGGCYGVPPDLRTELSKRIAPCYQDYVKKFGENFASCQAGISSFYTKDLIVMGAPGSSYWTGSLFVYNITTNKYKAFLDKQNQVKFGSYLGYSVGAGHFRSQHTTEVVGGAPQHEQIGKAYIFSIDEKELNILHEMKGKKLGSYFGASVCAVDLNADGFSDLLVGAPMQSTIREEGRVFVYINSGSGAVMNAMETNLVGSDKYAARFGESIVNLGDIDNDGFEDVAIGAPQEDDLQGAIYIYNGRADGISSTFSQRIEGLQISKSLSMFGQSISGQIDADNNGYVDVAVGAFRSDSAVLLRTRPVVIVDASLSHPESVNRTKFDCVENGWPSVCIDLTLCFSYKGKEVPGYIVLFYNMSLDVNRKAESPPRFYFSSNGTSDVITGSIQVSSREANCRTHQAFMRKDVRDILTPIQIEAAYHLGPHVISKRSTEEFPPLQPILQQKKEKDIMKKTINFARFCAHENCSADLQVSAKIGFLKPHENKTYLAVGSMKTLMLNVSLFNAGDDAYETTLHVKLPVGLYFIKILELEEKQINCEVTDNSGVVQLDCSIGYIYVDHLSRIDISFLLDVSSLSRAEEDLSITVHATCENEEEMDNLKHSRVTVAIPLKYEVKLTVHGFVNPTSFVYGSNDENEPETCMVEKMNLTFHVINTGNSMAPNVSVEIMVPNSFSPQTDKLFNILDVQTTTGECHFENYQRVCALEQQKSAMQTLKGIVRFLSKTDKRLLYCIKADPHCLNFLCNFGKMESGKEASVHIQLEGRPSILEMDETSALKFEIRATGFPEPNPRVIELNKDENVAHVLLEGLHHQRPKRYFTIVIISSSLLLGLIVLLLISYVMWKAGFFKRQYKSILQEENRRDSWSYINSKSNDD
T2 sequence (P26010 20-798): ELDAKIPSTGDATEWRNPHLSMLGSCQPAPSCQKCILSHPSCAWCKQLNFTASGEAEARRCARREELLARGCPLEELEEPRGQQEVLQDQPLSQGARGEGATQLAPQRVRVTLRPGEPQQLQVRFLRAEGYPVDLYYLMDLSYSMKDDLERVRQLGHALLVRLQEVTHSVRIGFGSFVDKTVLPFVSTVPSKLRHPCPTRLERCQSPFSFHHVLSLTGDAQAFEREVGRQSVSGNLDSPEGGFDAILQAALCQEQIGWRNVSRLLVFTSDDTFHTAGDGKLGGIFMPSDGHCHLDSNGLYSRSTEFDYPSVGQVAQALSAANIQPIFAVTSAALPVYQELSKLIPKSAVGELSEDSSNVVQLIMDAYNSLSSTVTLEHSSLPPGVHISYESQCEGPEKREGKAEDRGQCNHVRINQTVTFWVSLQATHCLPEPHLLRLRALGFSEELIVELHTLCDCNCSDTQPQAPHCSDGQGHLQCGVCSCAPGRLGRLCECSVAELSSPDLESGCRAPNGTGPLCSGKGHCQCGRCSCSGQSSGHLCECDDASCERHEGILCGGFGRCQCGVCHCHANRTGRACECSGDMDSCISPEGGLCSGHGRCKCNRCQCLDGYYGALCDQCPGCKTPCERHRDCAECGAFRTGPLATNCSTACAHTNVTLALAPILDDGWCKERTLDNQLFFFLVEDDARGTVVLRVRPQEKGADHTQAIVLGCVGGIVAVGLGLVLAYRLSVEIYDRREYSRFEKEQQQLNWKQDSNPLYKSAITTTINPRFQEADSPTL
Description: α4β7-K562 Cell Adhesion Assay (α4β7 Mediated Adhesion/MAdCAM-1)
M2 anti-FLAG Antibody Coated 96-well plates (Sigma) were coated for 1 hour at 4° C. with 2-8 μl/well recombinant FLAG-hMAdCAM-1 contained in 100 μL of Dulbecco's PBS, pH 7.4, with 1% BSA and 1 mM Mn ^+2 (PBS-BSA-Mn). Plates were washed once with PBS-BSA-Mn. Buffer was removed and compounds to be tested (50 μL) were added at 2× concentration. Stably transfected K562 cells expressing human α4β7 integrin, (50 μL at 2×10^6/mL) that had been labeled with 100 μg/ml carboxymethyl fluorescein diacetate succinimidyl ester (CFDA-SE; Molecular Probes) for 15 min at 37° C. were added to each well and allowed to adhere for 1 h at room temperature. Plates were washed 4× in PBS-BSA-Mn and then cells were lysed for 2 minutes by addtion of 100 μL of PBS without Ca, Mg supplemented with 0.1 M NaOH.

T1 sequence (P05556 21-798, one chain of several): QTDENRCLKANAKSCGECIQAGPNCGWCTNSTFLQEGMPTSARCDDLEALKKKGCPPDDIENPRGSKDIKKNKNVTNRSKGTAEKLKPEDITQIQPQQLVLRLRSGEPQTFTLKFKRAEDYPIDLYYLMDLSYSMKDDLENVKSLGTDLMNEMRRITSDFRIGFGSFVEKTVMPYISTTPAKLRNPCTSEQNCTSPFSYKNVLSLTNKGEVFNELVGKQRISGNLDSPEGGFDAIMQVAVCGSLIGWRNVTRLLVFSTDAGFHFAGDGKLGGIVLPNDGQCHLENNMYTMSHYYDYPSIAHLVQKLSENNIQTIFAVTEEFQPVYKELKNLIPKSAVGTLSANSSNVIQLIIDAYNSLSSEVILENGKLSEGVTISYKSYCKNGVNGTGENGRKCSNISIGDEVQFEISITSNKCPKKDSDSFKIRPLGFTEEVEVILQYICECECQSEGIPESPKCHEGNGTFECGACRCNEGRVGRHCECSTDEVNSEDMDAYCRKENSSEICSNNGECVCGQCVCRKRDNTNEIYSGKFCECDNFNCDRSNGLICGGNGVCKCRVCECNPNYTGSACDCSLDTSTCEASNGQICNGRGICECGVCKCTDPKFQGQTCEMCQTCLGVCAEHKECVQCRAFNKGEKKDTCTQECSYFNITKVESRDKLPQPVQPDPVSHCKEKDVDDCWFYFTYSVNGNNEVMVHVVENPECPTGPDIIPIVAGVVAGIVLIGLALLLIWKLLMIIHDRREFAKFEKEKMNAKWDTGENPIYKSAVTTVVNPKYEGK

SMILES	IC50 (α4β1) [nM]	IC50 (human α4β7 integrin) [nM]
C=CCNc1cnn(CC(C)=O)c(=O)c1-c1ccc(C[C@H](NC(=O)c2c(Cl)cccc2Cl)C(=O)O)cc1 [Cpd 36]	1310	9
COc1cnn(C)c(=O)c1-c1ccc(C[C@H](NC(=O)C2(C(N)=O)CC2)C(=O)O)cc1 [Cpd 38]	> 5000	9
COc1cnn(C)c(=O)c1-c1ccc(C[C@H](NC(=O)C2(NC3CCCCC3)CC2)C(=O)O)cc1 [Cpd 40]	> 5000	38
COc1cnn(C)c(=O)c1-c1ccc(C[C@H](NC(=O)C2(NC(C)C)CCOCC2)C(=O)O)cc1 [Cpd 42]	936	59
COc1cnn(C)c(=O)c1-c1ccc(C[C@H](NC(=O)[C@H](C(C)C)N(C)C(=O)OC(C)(C)C)C(=O)O)cc1 [Cpd 48]	974	13
COc1cnn(-c2ccccc2)c(=O)c1-c1ccc(C[C@H](NC(=O)c2c(Cl)cccc2Cl)C(=O)O)cc1 [Cpd 56]	3860	18
CS(=O)(=O)c1ccc(-c2cnn(CC3CC3)c(=O)c2-c2ccc(C[C@H](NC(=O)c3c(Cl)cccc3Cl)C(=O)O)cc2)cc1 [Cpd 65]	4220	21
COc1cnn(C)c(=O)c1-c1ccc(C[C@H](NC(=O)c2c(Cl)cccc2Cl)C(=O)OCCCl)cc1 [Cpd 75]	> 5000	28
CSc1cnn(C(C)(C)C)c(=O)c1-c1ccc(C[C@H](NC(=O)c2c(Cl)cccc2Cl)C(=O)O)cc1 [Cpd 78]	5610	36
COc1cnn(C)c(=O)c1-c1ccc(C[C@H](NC(=O)C2(n3c(C)ccc3C)CC2)C(=O)O)cc1 [Cpd 80]	> 5000	228
COc1cnn(C)c(=O)c1-c1ccc(C[C@H](NC(=O)[C@H](NC(=O)OC(C)(C)C)C(C)C)C(=O)O)cc1 [Cpd 81, (R)-2-(2-tert-Butoxycarbonylamino-3-methyl-butyrylamino)-3-(S)-[4-(5-methoxy-2-methyl-3-oxo-2,3-dihydro-pyridazin-4-yl)-phenyl]-propionic acid]	987	39
COc1cn[nH]c(=O)c1-c1ccc(C[C@H](NC(=O)c2c(Cl)cccc2Cl)C(=O)O)cc1 [Cpd 83]	1020	41
COc1cnn(C)c(=O)c1-c1ccc(C[C@H](NC(=O)c2ccc[nH]2)C(=O)O)cc1 [Cpd 84]	> 5000	41
O=C(N[C@@H](Cc1ccc(-c2c(-n3ncc4ccccc43)cnn(CCO)c2=O)cc1)C(=O)O)c1c(Cl)cccc1Cl [Cpd 88]	1040	46
COc1cnn(C)c(=O)c1-c1ccc(C[C@H](NC(=O)[C@@H](C(C)C)N(C)C(=O)CCc2ccccc2)C(=O)O)cc1 [Cpd 90]	4500	48

Molecules with a lower IC50 (α4β1), results first:

IC50 (α4β1) [nM]	IC50 (human α4β7 integrin) [nM]	SMILES
474	9	Cn1ncc(OCC(F)(F)F)c(-c2ccc(C[C@H](NC(=O)c3c(Cl)cccc3Cl)C(=O)O)cc2)c1=O [Cpd 37]
588	10	COc1cnn(CC(F)(F)F)c(=O)c1-c1ccc(C[C@H](NC(=O)c2c(Cl)cccc2Cl)C(=O)O)cc1 [Cpd 39]
152	11	Cn1ncc(OC2CCCCC2)c(-c2ccc(C[C@H](NC(=O)c3c(Cl)cccc3Cl)C(=O)O)cc2)c1=O [Cpd 41]
437	12	O=C(N[C@@H](Cc1ccc(-c2c(OC3CCCC3)cnn(CCO)c2=O)cc1)C(=O)O)c1c(Cl)cccc1Cl [Cpd 43]
486	14	Cn1ncc(Cl)c(-c2ccc(C[C@H](NC(=O)c3c(Cl)cccc3Cl)C(=O)O)cc2)c1=O [Cpd 49]
229	14	COc1cnn(C)c(=O)c1-c1ccc(C[C@H](NC(=O)[C@@H](C)N(C)C(=O)Cc2ccsc2)C(=O)O)cc1 [Cpd 50]
113	16	Cn1ncc(N2CCCC2)c(-c2ccc(C[C@H](NC(=O)c3c(Cl)cccc3Cl)C(=O)O)cc2)c1=O [Cpd 51]
663	17	Cn1ncc(OCc2ccccc2)c(-c2ccc(C[C@H](NC(=O)c3c(Cl)cccc3Cl)C(=O)O)cc2)c1=O [Cpd 52]
269	17	O=C(N[C@@H](Cc1ccc(-c2c(OC3CCC3)cnn(CCO)c2=O)cc1)C(=O)O)c1c(Cl)cccc1Cl [Cpd 53]
155	20	Cn1ncc(OC2CCCC2)c(-c2ccc(C[C@H](NC(=O)c3c(Cl)cccc3Cl)C(=O)O)cc2)c1=O [Cpd 60]
40	21	Cn1ncc(O)c(-c2ccc(C[C@H](NC(=O)c3c(Cl)cncc3Cl)C(=O)O)cc2)c1=O [Cpd 62]
473	24	CN[C@H](C(=O)N[C@@H](Cc1ccc(-c2c(OC)cnn(C)c2=O)cc1)C(=O)O)[C@@H](C)OCc1ccccc1 [Cpd 68]
190	26	CN1CCC(Oc2cnn(CCO)c(=O)c2-c2ccc(C[C@H](NC(=O)c3c(Cl)cccc3Cl)C(=O)O)cc2)C1 (stereo partly shown) [Cpd 72]
135	27	CC(C)Oc1cnn(C)c(=O)c1-c1ccc(C[C@H](NC(=O)c2c(Cl)cccc2Cl)C(=O)O)cc1 [Cpd 74]
794	42	COc1cnn(C(C)(C)C)c(=O)c1-c1ccc(C[C@H](NC(=O)c2c(Cl)cccc2Cl)C(=O)O)cc1 [Cpd 85]
212	44	Cn1ncc(OCC2CC2)c(-c2ccc(C[C@H](NC(=O)c3c(Cl)cccc3Cl)C(=O)O)cc2)c1=O [Cpd 86, (S)-3-[4-(5-Cyclopropylmethoxy-2-methyl-3-oxo-2,3-dihydro-pyridazin-4-yl)-phenyl]-2-(2,6-dichloro-benzoylamino)-propionic acid]
278	44	COc1cnn(C)c(=O)c1-c1ccc(CC(NC(=O)C(C(C)C)n2cccc2)C(=O)O)cc1 (stereo not shown) [Cpd 87, 3-[4-(5-Methoxy-2-methyl-3-oxo-2,3-dihydro-pyridazin-4-yl)-phenyl]-2-(3-methyl-2-pyrrol-1-yl-butyrylamino)-propionic acid]

From patent publication US20050192279A1, “Pyridazinones as antagonists of alpha4 integrins” (priority 2004, published 2005)
